For the assay, the target named is T1, RXFP1 (Homo sapiens, UniProt Q9HBX9).
T1 construct: OVCAR5 cells expressing endogenous RXFP1; endogenous in cells; host or cells: OVCAR5
T1 sequence (Q9HBX9 1-757): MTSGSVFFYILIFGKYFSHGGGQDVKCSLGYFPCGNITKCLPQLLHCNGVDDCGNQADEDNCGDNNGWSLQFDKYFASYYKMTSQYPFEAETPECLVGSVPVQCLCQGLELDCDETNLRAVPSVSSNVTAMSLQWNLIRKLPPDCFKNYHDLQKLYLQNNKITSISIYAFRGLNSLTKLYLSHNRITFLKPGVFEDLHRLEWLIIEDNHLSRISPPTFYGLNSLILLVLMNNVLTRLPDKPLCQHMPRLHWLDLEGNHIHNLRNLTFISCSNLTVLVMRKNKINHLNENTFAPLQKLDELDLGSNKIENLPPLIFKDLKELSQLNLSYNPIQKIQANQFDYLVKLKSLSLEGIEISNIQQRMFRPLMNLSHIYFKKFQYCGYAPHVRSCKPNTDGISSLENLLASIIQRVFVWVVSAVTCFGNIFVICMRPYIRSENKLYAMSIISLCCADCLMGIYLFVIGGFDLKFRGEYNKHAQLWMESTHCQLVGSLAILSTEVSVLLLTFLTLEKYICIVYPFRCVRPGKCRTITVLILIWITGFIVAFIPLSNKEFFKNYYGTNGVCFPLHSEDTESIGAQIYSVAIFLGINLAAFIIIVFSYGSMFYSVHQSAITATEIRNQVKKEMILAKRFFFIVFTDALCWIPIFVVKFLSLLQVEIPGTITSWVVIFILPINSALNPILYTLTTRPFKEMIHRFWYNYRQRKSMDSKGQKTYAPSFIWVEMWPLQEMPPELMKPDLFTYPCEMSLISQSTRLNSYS
Put plainly: OVCAR5 cAMP assay (HTRF). The assay is classed as cell-based. The settings on record: for EC50: OVCAR 5 cells expressing endogenous RXFP1, cAMP readout; for Emax: OVCAR 5 cells, maximal cAMP relative to H2-relaxin. An excerpt:
OVCAR5 cells expressing endogenous RXFP1 were used to test RXP1 agonist properties of peptides of the invention, and in particular of the peptides of sequence SEQ ID NO: 1-97.
Since RXFP1 is a Gs coupled GPCR, cAMP was used as readout of RXFP1 activation.
Isobutyl Methyl Xanthine (IBMX) was used to inhibit phosphodiesterase activity facilitating cAMP measurements. HTRF (Homogenous Time Resolved Fluorescence) technology was used to detect cAMP due to its great sensitivity.
In summary, OVCAR5 were grown in regular medium (RPMI) containing 10% fetal calf serum (FCS) and 1% antibiotics (penicillin/streptomycin).
Before the experiments, cells were detached with accutase and incubated for 40 minutes at 37° C. with 1 mM (3-isobutyl-1-methylxanthine) IBMX.
Cells were then distributed in 384 black well plates containing increasing concentrations of the different peptides in a fix volume of medium (without FCS).
After an incubation of 30 min at 37° C. in an humid incubator in 5% CO2, the reaction was stopped by adding a fixed volume of a solution containing a lysis buffer and cAMP-D2 (cAMP labeled with the dye d2) and the anti cAMP antibody linked to Europium and used for cAMP detection.
Readout of the experiment were performed on a fluorimeter allowing HTRF measurement. Activation curves were generated by plotting the intracellular value of cAMP versus log 10 of the compound concentration.
The 50% activation concentration (EC50) was calculated by nonlinear regression using the sigmoidal dose-response (variable slope) equation with Prism 5 software.
Emax % was determined as the maximal intracellular value of cAMP for test compound (upper limit of cAMP vs concentration curve) divided by the maximal intracellular value of cAMP for H2-relaxin determined in the same test occasion multiplied by 100. Emax %=100×[cAMPtest cpd]/[cAMPH2-Rlx]

Starred links: 1 amine or outer side, 2 acyl side, 3 side chain; linkers in the order of their positions; H or OH if unused. Non-standard residues stand in square brackets, D forms with d. Residues, ends and D or L forms follow the SMILES beside them. Groups on a side chain read outwards from the residue. *: point of attachment. X12 = CCCCCCCCCCCCCCCCCC(=O)N[C@@H](CCC(=O)N[C@@H](CCC(=O)N[C@@H](CCC(=O)N[C@@H](CCC(=O)NCCCOCCOCCOCCCNC(=O)CCC(=O)NCCCOCCOCCOCCCNC(=O)CCC(=O)NCCCOCCOCCOCCCNC(=O)CCC(=O)NCCCOCCOCCOCCCN*)C(=O)O)C(=O)O)C(=O)O)C(=O)O; X1 = CCCCCCCCCCCCCCCC(=O)N[C@@H](CCC(=O)N[C@@H](CCC(=O)N[C@@H](CCC(=O)NCCCOCCOCCOCCCNC(=O)CCC(=O)NCCCOCCOCCOCCCNC(=O)CCC(=O)NCCCOCCOCCOCCCN*)C(=O)O)C(=O)O)C(=O)O; Suc = O=C(CCC(=O)[*:2])[*:1]; αMeK = C[C@](N)(CCCCN)C(=O)O; Aib = CC(C)(N)C(=O)O

For `CCCCCCCCCCCCCCCC(=O)N[C@@H](CCC(=O)N[C@@H](CCC(=O)N[C@@H](CCC(=O)NCCCOCCOCCOCCCNC(=O)CCC(=O)NCCCOCCOCCOCCCNC(=O)CCC(=O)NCCCOCCOCCOCCCNC(=O)CCC(=O)NCCCC[C@H](NC(=O)CNC(=O)[C@H](CCC(=O)O)NC(=O)C(C)(C)NC(=O)C(C)(C)NC(=O)[C@@H](NC(=O)[C@H](CCCCNC(C)=O)NC(=O)[C@H](C)NC(=O)[C@H](CCCNC(=N)N)NC(=O)[C@@H](NC(=O)[C@H](CCCCN)NC(=O)[C@H](CCC(=O)O)NC(=O)[C@H](CCCNC(=N)N)NC(=O)CNC(=O)[C@H](CCC(=O)O)NC(=O)[C@H](CC(C)C)NC(C)=O)C(C)C)[C@@H](C)CC)C(=O)N[C@@H](CO)C(=O)N[C@H](C(=O)N[C@@H](Cc1ccccc1)C(=O)N[C@H](C(=O)N[C@@H](CCCNC(=N)N)C(=O)N[C@@H](CCCNC(=N)N)C(=O)N[C@@H](C)C(=O)N[C@@H](CCCCNC(C)=O)C(N)=O)[C@@H](C)O)[C@@H](C)O)C(=O)O)C(=O)O)C(=O)O` [compound 93] (Ac-LEGREKVRAK(Ac)I[Aib][Aib]EGK([Suc-X1])STFTRRAK(Ac)-NH2), the EC50 was determined as 0.77 nM and the Emax came to 86%.
Take `CCCCCCCCCCCCCCCCCC(=O)N[C@@H](CCC(=O)N[C@@H](CCC(=O)N[C@@H](CCC(=O)N[C@@H](CCC(=O)NCCCOCCOCCOCCCNC(=O)CCC(=O)NCCCOCCOCCOCCCNC(=O)CCC(=O)NCCCOCCOCCOCCCNC(=O)CCC(=O)NCCCOCCOCCOCCCNC(=O)CCC(=O)NCCCC[C@H](NC(=O)CNC(=O)[C@H](CCC(=O)O)NC(=O)C(C)(C)NC(=O)C(C)(C)NC(=O)[C@@H](NC(=O)[C@H](CCCCNC(C)=O)NC(=O)[C@H](C)NC(=O)[C@H](CCCNC(=N)N)NC(=O)[C@@H](NC(=O)[C@H](CCCCN)NC(=O)[C@H](CCC(=O)O)NC(=O)[C@H](CCCNC(=N)N)NC(=O)CNC(=O)[C@H](CCC(=O)O)NC(=O)[C@H](CC(C)C)NC(C)=O)C(C)C)[C@@H](C)CC)C(=O)N[C@@H](CO)C(=O)N[C@H](C(=O)N[C@@H](Cc1c[nH]c2ccccc12)C(=O)N[C@@H](CO)C(=O)NC(C)(C)C(=O)N[C@@H](CCCNC(=N)N)C(=O)N[C@@H](CCCCN)C(=O)N[C@@H](CCCCNC(C)=O)C(N)=O)[C@@H](C)O)C(=O)O)C(=O)O)C(=O)O)C(=O)O` [compound 59] (Ac-LEGREKVRAK(Ac)I[Aib][Aib]EGK([Suc-X12])STWS[Aib]RKK(Ac)-NH2): the Emax turned out to be 99%.
In turn, `CCCCCCCCCCCCCCCC(=O)N[C@@H](CCC(=O)N[C@@H](CCC(=O)N[C@@H](CCC(=O)NCCCOCCOCCOCCCNC(=O)CCC(=O)NCCCOCCOCCOCCCNC(=O)CCC(=O)NCCCOCCOCCOCCCNC(=O)CCC(=O)NCCCC[C@H](NC(=O)CNC(=O)[C@H](CCC(=O)O)NC(=O)C(C)(C)NC(=O)C(C)(C)NC(=O)[C@@H](NC(=O)[C@H](CCCCNC(C)=O)NC(=O)[C@H](C)NC(=O)[C@H](CCCNC(=N)N)NC(=O)[C@@H](NC(=O)[C@H](CCCCN)NC(=O)[C@H](CCC(=O)O)NC(=O)[C@H](CCCNC(=N)N)NC(=O)CNC(=O)[C@H](CCC(=O)O)NC(=O)[C@H](CC(C)C)NC(C)=O)C(C)C)[C@@H](C)CC)C(=O)N[C@@H](CO)C(=O)N[C@H](C(=O)N[C@@H](Cc1ccccc1)C(=O)N[C@@H](CO)C(=O)N[C@@](C)(CCCCN)C(=O)N[C@@H](CCCNC(=N)N)C(=O)N[C@@H](C)C(=O)N[C@@H](CCCCN)C(N)=O)[C@@H](C)O)C(=O)O)C(=O)O)C(=O)O` [compound 49] (Ac-LEGREKVRAK(Ac)I[Aib][Aib]EGK([Suc-X1])STFS[αMeK]RAK-NH2) returned a concentration giving a half-maximal response (EC50) of 0.19 nM and an Emax of 97%.
In the case of `CCCCCCCCCCCCCCCC(=O)N[C@@H](CCC(=O)N[C@@H](CCC(=O)N[C@@H](CCC(=O)NCCCOCCOCCOCCCNC(=O)CCC(=O)NCCCOCCOCCOCCCNC(=O)CCC(=O)NCCCOCCOCCOCCCNC(=O)CCC(=O)NCCCC[C@H](NC(=O)CNC(=O)[C@H](CCC(=O)O)NC(=O)C(C)(C)NC(=O)C(C)(C)NC(=O)[C@@H](NC(=O)[C@H](CCCCNC(C)=O)NC(=O)[C@H](C)NC(=O)[C@H](CCCNC(=N)N)NC(=O)[C@@H](NC(=O)[C@H](CCCCN)NC(=O)[C@H](CCC(=O)O)NC(=O)[C@H](CCCNC(=N)N)NC(=O)CNC(=O)[C@H](CCC(=O)O)NC(=O)[C@H](CC(C)C)NC(C)=O)C(C)C)[C@@H](C)CC)C(=O)N[C@@H](CO)C(=O)N[C@H](C(=O)N[C@@H](Cc1ccccc1)C(=O)N[C@H](CO)C(=O)N[C@@H](CCCCN)C(=O)N[C@@H](CCCNC(=N)N)C(=O)N[C@@H](C)C(=O)N[C@@H](CCCCNC(C)=O)C(N)=O)[C@@H](C)O)C(=O)O)C(=O)O)C(=O)O` [compound 14] (Ac-LEGREKVRAK(Ac)I[Aib][Aib]EGK([Suc-X1])STF[dS]KRAK(Ac)-NH2), the EC50 amounted to 3.2 nM and the Emax worked out at 90%.
For the molecule `CCCCCCCCCCCCCCCC(=O)N[C@@H](CCC(=O)N[C@@H](CCC(=O)N[C@@H](CCC(=O)NCCCOCCOCCOCCCNC(=O)CCC(=O)NCCCOCCOCCOCCCNC(=O)CCC(=O)NCCCOCCOCCOCCCNC(=O)CCC(=O)NCCCC[C@H](NC(=O)CNC(=O)[C@H](CCC(=O)O)NC(=O)C(C)(C)NC(=O)C(C)(C)NC(=O)[C@@H](NC(=O)[C@H](CCCCNC(C)=O)NC(=O)[C@H](C)NC(=O)[C@H](CCCNC(=N)N)NC(=O)[C@@H](NC(=O)[C@H](CCCCN)NC(=O)[C@H](CCC(=O)O)NC(=O)[C@H](CCCNC(=N)N)NC(=O)CNC(=O)[C@H](CCC(=O)O)NC(=O)[C@H](CC(C)C)NC(C)=O)C(C)C)[C@@H](C)CC)C(=O)N[C@@H](CO)C(=O)N[C@H](C(=O)N[C@@H](Cc1c[nH]c2ccccc12)C(=O)N[C@@H](CCCCNC(C)=O)C(=O)NC(C)(C)C(=O)N[C@@H](CCCNC(=N)N)C(=O)N[C@@H](C)C(=O)N[C@@H](CCCCNC(C)=O)C(N)=O)[C@@H](C)O)C(=O)O)C(=O)O)C(=O)O` [compound 66] (Ac-LEGREKVRAK(Ac)I[Aib][Aib]EGK([Suc-X1])STWK(Ac)[Aib]RAK(Ac)-NH2), the Emax was found to be 93%.
In turn, `CCCCCCCCCCCCCCCC(=O)N[C@@H](CCC(=O)N[C@@H](CCC(=O)N[C@@H](CCC(=O)NCCCOCCOCCOCCCNC(=O)CCC(=O)NCCCOCCOCCOCCCNC(=O)CCC(=O)NCCCOCCOCCOCCCNC(=O)CCC(=O)NCCCC[C@H](NC(=O)CNC(=O)[C@H](CCC(=O)O)NC(=O)C(C)(C)NC(=O)C(C)(C)NC(=O)[C@@H](NC(=O)[C@H](CCCCNC(C)=O)NC(=O)[C@H](C)NC(=O)[C@H](CCCNC(=N)N)NC(=O)[C@@H](NC(=O)[C@H](CCCCN)NC(=O)[C@H](CCC(=O)O)NC(=O)[C@H](CCCNC(=N)N)NC(=O)CNC(=O)[C@H](CCC(=O)O)NC(=O)[C@H](CC(C)C)NC(C)=O)C(C)C)[C@@H](C)CC)C(=O)N[C@@H](CO)C(=O)N[C@H](C(=O)N[C@@H](Cc1ccccc1)C(=O)NC(C)(C)C(=O)N[C@@H](CCCCN)C(=O)N[C@@H](CCCNC(=N)N)C(=O)N[C@@H](C)C(=O)N[C@@H](CCCCNC(C)=O)C(N)=O)[C@@H](C)O)C(=O)O)C(=O)O)C(=O)O` [compound 15] (Ac-LEGREKVRAK(Ac)I[Aib][Aib]EGK([Suc-X1])STF[Aib]KRAK(Ac)-NH2) came in with an EC50 of 2.1 nM and an Emax of 85%.

The values above are taken from patent US11725036B2, “Modified lipidated relaxin B chain peptides and their therapeutic use” (Sanofi, priority 2018, dated 2023).
